Measured values reported in patent US20200281944A1, “Combinations Of Lanosterol Or 25-Hydroxycholesterol Including Derivatives Thereof Useful In The Treatment Of Lens Disorders” (priority 2017, published 2020).
Counter-ions that a name gives are not always drawn. Values belong to the molecule of their own block, whether it stands above or below them.

What was measured:
lens opacification = conditions: cell cultures, in the presence of guanidine; cited from earlier work
presbyopia = conditions: cited from earlier work

- melting point: 204 to 205 °C
SMILES: CC(C)=CCC[C@@H](C)[C@H]1CC[C@@]2(C)C3=C(CC[C@]12C)[C@@]1(C)CC[C@H](OP(=O)(O)O)C(C)(C)[C@@H]1CC3 (as salt: phosphate)

SMILES: NCCC(=O)N[C@@H](Cc1c[nH]cn1)C(=O)O [L-carnosine, β-alanyl-L-histidine]
- prevention of lens opacification (lens opacification): 50 to 60%

SMILES: C[N+](C)(C)CCOC(=O)CCCC[C@@H]1CCSS1 [EV06, Lipoic acid choline ester]
- binocular near acuity (presbyopia; Lipoic acid choline ester 1.5%): improved
- distance corrected near vision acuity (DCNVA) efficacy measures (presbyopia; in vivo): improvement in all
